Reference: patent publication US10413535B2, “Pharmaceutical compositions comprising an integrin ALPHA4 antagonist for use in treating ocular inflammatory conditions” (AXEROVISION, INC., priority 2015, dated 2019)
Like-named read-outs stand apart in the source and are kept apart here.

Experiment: Toxicokinetics in 13-week topical ocular dog study
Conditions: beagle, in vivo, topical or ocular
Method: GW559090A was given to Beagle Dogs by topical ocular administration for 13 weeks. Animals were dosed six or twelve times per day, with one hour between doses. Treatment groups were: (1) vehicle (12 times a day), (2) 30 mg/mL/occasion given six times a day, (3) 50 mg/mL/occasion given six times a day, or (4) 50 mg/mL/occasion, given 12 times a day.
GW559090A was formulated as a stock solution in 25 mM phosphate buffer with 0.5% sodium chloride to provide a 50 mg/mL stock solution, which was used for administration to Groups 3 or 4, or further diluted with 25 mM phosphate buffer with 0.75% sodium chloride to provide a 30 mg/mL solution for administration to Group 2.
During the 13 week treatment period dogs received daily topical ocular doses of GW559090 or vehicle (12 times a day) at a constant dose volume of 0.06 mL (given 6 or 12 times a day, with one hour between doses). The test article formulation or vehicle was carefully dropped into the everted lower eyelid of the left eye from a suitable distance, to prevent contact of the positive displacement pipette with the eye. The lower and upper lids were then gently held together for approximately five seconds, to prevent loss of dose and aid even distribution across the external ocular surface. The un-dosed eye was not manipulated at any time and served as a within animal untreated control site.

Cc1ccccc1OCC(=O)N[C@@H](CC(C)C)C(=O)N[C@@H](Cc1ccc(OC(=O)N2CCC(C(N)=O)CC2)cc1)C(=O)O [GW559090, (2S)-3-[4-({[4-(Aminocarbonyl)-1-piperidinyl]carbonyl}oxy)phenyl]-2-[((2S)-4-methyl-2-{[2-(2-methylphenoxy)acetyl]amino}pentanoyl)amino]propanoic acid]
Tmax (female, 50 mg/mL/occasion, female dogs, 50 mg/mL, 12 daily doses, Week 13): 15 min | AUC(0-t) (female, 50 mg/mL/occasion, female dogs, 50 mg/mL, 12 daily doses, Week 13, read-out: AUC0-1): 12.1 ng·h/mL | AUC(0-t) (female, 50 mg/mL/occasion, female dogs, 50 mg/mL, 12 daily doses, Week 13, read-out: AUC0-24): 146 ng·h/mL | Cmax (female, 50 mg/mL/occasion, female dogs, 50 mg/mL, 12 daily doses, Week 13, read-out: Cmax): 30.5 ng/mL | AUC(0-t) (male, 30 mg/mL/occasion, male dogs, 30 mg/mL, 6 daily doses, Day 1, read-out: AUC0-1): 3.82 ng·h/mL | AUC(0-t) (male, 30 mg/mL/occasion, male dogs, 30 mg/mL, 6 daily doses, Day 1, read-out: AUC0-24): 22.9 ng·h/mL | Cmax (male, 30 mg/mL/occasion, male dogs, 30 mg/mL, 6 daily doses, Day 1, read-out: Cmax): 7.41 ng/mL | Tmax (male, 30 mg/mL/occasion, male dogs, 30 mg/mL, 6 daily doses, Week 4): 15 min | AUC(0-t) (male, 30 mg/mL/occasion, male dogs, 30 mg/mL, 6 daily doses, Week 4, read-out: AUC0-1): 2.27 ng·h/mL | AUC(0-t) (male, 30 mg/mL/occasion, male dogs, 30 mg/mL, 6 daily doses, Week 4, read-out: AUC0-24): 13.6 ng·h/mL | Cmax (male, 30 mg/mL/occasion, male dogs, 30 mg/mL, 6 daily doses, Week 4, read-out: Cmax): 5.3 ng/mL | Tmax (male, 30 mg/mL/occasion, male dogs, 30 mg/mL, 6 daily doses, Week 13): 30 min | AUC(0-t) (male, 30 mg/mL/occasion, male dogs, 30 mg/mL, 6 daily doses, Week 13, read-out: AUC0-1): 3.81 ng·h/mL | AUC(0-t) (male, 30 mg/mL/occasion, male dogs, 30 mg/mL, 6 daily doses, Week 13, read-out: AUC0-24): 22.9 ng·h/mL | Cmax (male, 30 mg/mL/occasion, male dogs, 30 mg/mL, 6 daily doses, Week 13, read-out: Cmax): 7.03 ng/mL | Tmax (male, 50 mg/mL/occasion, male dogs, 50 mg/mL, 6 daily doses, Day 1): 4.98 min | AUC(0-t) (male, 50 mg/mL/occasion, male dogs, 50 mg/mL, 6 daily doses, Day 1, read-out: AUC0-1): 18.4 ng·h/mL | AUC(0-t) (male, 50 mg/mL/occasion, male dogs, 50 mg/mL, 6 daily doses, Day 1, read-out: AUC0-24): 110 ng·h/mL | Cmax (male, 50 mg/mL/occasion, male dogs, 50 mg/mL, 6 daily doses, Day 1, read-out: Cmax): 52.8 ng/mL | Tmax (male, 50 mg/mL/occasion, male dogs, 50 mg/mL, 6 daily doses, Week 4): 10 min | AUC(0-t) (male, 50 mg/mL/occasion, male dogs, 50 mg/mL, 6 daily doses, Week 4, read-out: AUC0-1): 8.74 ng·h/mL | AUC(0-t) (male, 50 mg/mL/occasion, male dogs, 50 mg/mL, 6 daily doses, Week 4, read-out: AUC0-24): 52.4 ng·h/mL | Cmax (male, 50 mg/mL/occasion, male dogs, 50 mg/mL, 6 daily doses, Week 4, read-out: Cmax): 24.2 ng/mL | Tmax (male, 50 mg/mL/occasion, male dogs, 50 mg/mL, 6 daily doses, Week 13): 15 min | AUC(0-t) (male, 50 mg/mL/occasion, male dogs, 50 mg/mL, 6 daily doses, Week 13, read-out: AUC0-1): 6.36 ng·h/mL | AUC(0-t) (male, 50 mg/mL/occasion, male dogs, 50 mg/mL, 6 daily doses, Week 13, read-out: AUC0-24): 38.2 ng·h/mL | Cmax (male, 50 mg/mL/occasion, male dogs, 50 mg/mL, 6 daily doses, Week 13, read-out: Cmax): 13.2 ng/mL | Tmax (male, 50 mg/mL/occasion, male dogs, 50 mg/mL, 12 daily doses, Day 1): 22.5 min | AUC(0-t) (male, 50 mg/mL/occasion, male dogs, 50 mg/mL, 12 daily doses, Day 1, read-out: AUC0-1): 36.6 ng·h/mL | AUC(0-t) (male, 50 mg/mL/occasion, male dogs, 50 mg/mL, 12 daily doses, Day 1, read-out: AUC0-24): 439 ng·h/mL | Cmax (male, 50 mg/mL/occasion, male dogs, 50 mg/mL, 12 daily doses, Day 1, read-out: Cmax): 69.7 ng/mL | Tmax (male, 50 mg/mL/occasion, male dogs, 50 mg/mL, 12 daily doses, Week 4): 15 min | AUC(0-t) (male, 50 mg/mL/occasion, male dogs, 50 mg/mL, 12 daily doses, Week 4, read-out: AUC0-1): 11.8 ng·h/mL | AUC(0-t) (male, 50 mg/mL/occasion, male dogs, 50 mg/mL, 12 daily doses, Week 4, read-out: AUC0-24): 142 ng·h/mL | Cmax (male, 50 mg/mL/occasion, male dogs, 50 mg/mL, 12 daily doses, Week 4, read-out: Cmax): 23.8 ng/mL | Tmax (male, 50 mg/mL/occasion, male dogs, 50 mg/mL, 12 daily doses, Week 13): 15 min | AUC(0-t) (male, 50 mg/mL/occasion, male dogs, 50 mg/mL, 12 daily doses, Week 13, read-out: AUC0-1): 10.2 ng·h/mL | AUC(0-t) (male, 50 mg/mL/occasion, male dogs, 50 mg/mL, 12 daily doses, Week 13, read-out: AUC0-24): 122 ng·h/mL | Cmax (male, 50 mg/mL/occasion, male dogs, 50 mg/mL, 12 daily doses, Week 13, read-out: Cmax): 26.8 ng/mL
